# US20080139536A1, “Benzodiazepines for Treating or Preventing Rsv Infection” (Novartis Pharmaceuticals Corporation, priority 2004, published 2008)
# Tests used:
# [1] = system: RSV (RSS strain); assay: RSV ELISA antigen reduction assay in Hep-2 cells; format: cell-based, Respiratory Syncytial Virus; details: RSV-infected Hep-2 cells, 3 day assay, ELISA OD 490 nm, 7-point dilution 50 μM-0.78 μM
# Description: This was quantified by optical density (OD) measurement.
# This assay was set up using all 96 wells of flat-bottomed 96-well plates. The outer wells were not subjected to any greater amount of evaporation than the inner wells during the 3 day assay period. (i.e. No “edge effect” seen).
# Plates were set up one day before addition of virus and compounds. The assay then ran for 3 days with ELISA development taking place on the 4th day.
# (§1) All 96 wells of a microtitre plate were seeded at a density of 4×10^3 Hep-2 cells/well in 100 μl/well of Growth Medium (GM) consisting of Dulbecco's MEM (DMEM) with Glutamax-1, Sodium Pyruvate, 1000 mg/l glucose and pyridoxine (Invitrogen, catalogue number 21885-025) and supplemented with 10% FBS. (See Plate 1).
# A frozen vial of RSV (RSS strain provided by Virogen Ltd) stock solution was removed from the −80 freezer or liquid nitrogen store and diluted to a known Multiplicity of Infection (m.o.i) in Growth Medium.
# The m.o.i. was calculated by prior titration of the virus stock (by the ELISA assay method) as the virus input required to achieve a window of at least 0.8 OD units between infected and uninfected control wells.
# 50 μl of diluted virus was added to infected, “virus+”, wells by multichannel pipette; 50 μl of Growth Medium was added to uninfected, cell control wells (CC) by multichannel pipette. (See Plate 2)
# Plates were incubated at 37° C. for 1 hr to allow virus adsorption.
# Compounds were made up at 4× strength in GM containing 2% DMSO (a final DMSO concentration in the assay of 0.5%).
# (§2) Six compounds were tested on each assay plate as illustrated below. (See Plate 3). Compounds were tested in duplicate wells across a 7-point dilution series (from 50 μM-0.78 μM): in the presence of virus.
# Virus infected, untreated wells served as the virus control (VC); Uninfected, untreated wells serve as the cell control (CC). The difference in absorbance between CC and VC wells constitutes the assay window.
# 200 μl of GM containing 2% DMSO was added to all wells except the ‘50 μM’ or first column, to which 392 μl of GM was added. 8 μl of each test compound was cherry-picked from a thawed Arrow screening plate and transferred to the appropriate well in the ‘50 μM’ column. Since the compound stock was at 10 mM in 100% DMSO, this will maintain the DMSO level at 2% at the top compound concentration.
# Using a multichannel pipette, 200 μl was transferred from the 50 μM column to the 25 μM column, then to the 12.5 μM column and so on across the dilution plate creating a serial doubling dilution. Compounds were mixed upon transfer and tips changed between transfers, ensuring also that no compound was transferred to the last column of compound-free wells (0 μM).
# The dilution plate was turned lengthways and 50 μl of compound easily transferred by multichannel pipette from the dilution plate to the assay plate, column by column. There was therefore an excess of 100 μl remaining in the dilution plate.
# Plates were incubated at 37° C., 5% CO2 for 3 days.
# Media was tapped out from wells directly into Virkon (1% solution in water) and plates were washed by immersing in a plastic box containing PBS. 50 μl/well of 75%/25% vol/vol acetone/methanol fixative was added by multichannel pipette and left for 3 mins.
# Some 200 μl of blocking solution (2% Marvel in PBS containing 0.05% Tween) was added per well by multichannel pipette. Plates were incubated at 37° C. in a shaking incubator for 60 mins.
# RSV mouse monoclonal antibody NCL-RSV3 (Novocastra) was diluted 1/400 in PBS/2% Marvel/0.05% Tween and 50 μl was added per well. Plates were incubated at 37° C. in a shaking incubator for 90 mins.
# DAKo rabbit anti-mouse HRP conjugate (DAKO catalogue number P0260) was diluted 1/1000 in PBS/2% Marvel/0.05% Tween and 50 μl was added per well. Plates were incubated at 37° C. in a shaking incubator for 60 mins.
# Substrate (SigmaFast OPD) was prepared in advance by dissolving 1 urea tablet in 20 mL water. […]
# [2] = system: Hep-2 cells; assay: Cell toxicity: crystal violet staining and microscopic examination of monolayers; format: cell-based; details: Hep-2 monolayers of the assay plates, crystal violet stain, indications of cell toxicity; compounds tested 50 μM-0.78 μM
# Description: as §1, §2
# The wells were emptied, washed in tap water and the monolayers stained with 50 μl/well of 2% crystal violet in 20% methanol/water for at least 1 hour. The wells were then washed and air-dried and the monolayers examined under the microscope for indications of cell toxicity.
# [3] = human respiratory syncytial virus, 72 h
Compound,IC50 [1] [µM],TD50 [2],"IC50 [1, 3] [µM]"
O=C(N[C@H]1N=C(c2ccccc2)c2ccccc2NC1=O)c1ccc(F)cc1[N+]1([O-])CCS(=O)(=O)CC1 [Example 5],< 5,Tr25,–
"O=C(N[C@H]1N=C(c2ccccc2)c2ccccc2NC1=O)c1cc(F)ccc1N1CCS(=O)(=O)CC1 [Example 7, (S)-2-(1,1-Dioxo-1λ6-thiomorpholin-4-yl)-5-fluoro-N-(2-oxo-5-phenyl-2,3-dihydro-1H-benzo[e][1,4]diazepin-3-yl)-benzamide]",–,Tr50,< 5
"O=C(N[C@H]1N=C(c2ccccc2)c2ccccc2NC1=O)c1cccc(S(=O)(=O)N2CCCCC2)c1 [Example 30, (S)—N-(2-Oxo-5-phenyl-2,3-dihydro-1H-benzo[e][1,4]diazepin-3-yl)-3-(piperidine-1-sulfonyl)-benzamide]",–,–,5 to 10
"O=C(N[C@H]1N=C(c2ccccc2)c2ccccc2NC1=O)c1cccc(S(=O)(=O)N2CCOCC2)c1 [Example 31, (S)-3-(Morpholine-4-sulfonyl)-N-(2-oxo-5-phenyl-2,3-dihydro-1H-benzo[e][1,4]diazepin-3-yl)-benzamide]",–,–,5 to 10
"O=C(N[C@H]1N=C(c2ccccc2)c2ccccc2NC1=O)c1ccc(CN2CCOCC2)o1 [Example 32, (S)-5-Morpholin-4-ylmethyl-furan-2-carboxylic acid (2-oxo-5-phenyl-2,3-dihydro-1H-benzo[e][1,4]diazepin-3-yl)-amide]",–,–,< 5
"O=C(N[C@H]1N=C(c2ccccc2)c2ccccc2NC1=O)c1ccc(CO)o1 [Example 33, (S)-5-Hydroxymethyl-furan-2-carboxylic acid (2-oxo-5-phenyl-2,3-dihydro-1H-benzo[e][1,4]diazepin-3-yl)-amide]",–,–,5 to 10
"O=C(N[C@H]1N=C(c2ccccc2)c2ccccc2NC1=O)c1ccc(CN2CCS(=O)(=O)CC2)o1 [Example 34, (S)-5-(1,1-Dioxo-1λ6-thiomorpholin-4-ylmethyl)-furan-2-carboxylic acid (2-oxo-5-phenyl-2,3-dihydro-1H-benzo[e][1,4]diazepin-3-yl)-amide]",–,–,< 5
"O=C(N[C@H]1N=C(c2ccccc2)c2ccccc2NC1=O)c1ccc(N2CCS(=O)(=O)CC2)cc1Cl [Example 35, (S)-2-Chloro-4-(1,1-dioxo-1λ6-thiomorpholin-4-yl)-N-(2-oxo-5-phenyl-2,3-dihydro-1H-benzo[e][1,4]diazepin-3-yl)-benzamide]",–,–,< 5
"O=C(N[C@H]1N=C(c2ccccc2)c2ccccc2NC1=O)c1cc(N2CCS(=O)(=O)CC2)ccc1Cl [Example 36, (S)-2-Chloro-5-(1,1-dioxo-1λ6-thiomorpholin-4-yl)-N-(2-oxo-5-phenyl-2,3-dihydro-1H-benzo[e][1,4]diazepin-3-yl)-benzamide]",–,–,< 5
CN(CCS(C)(=O)=O)Cc1ccc(C(=O)N[C@H]2N=C(c3ccccc3)c3ccccc3NC2=O)o1 [Example 37],< 5,–,–
"O=C(N[C@H]1N=C(c2ccccc2)c2ccccc2NC1=O)c1csc(-c2cccnc2)n1 [Example 38, (S)-2-Pyridin-3-yl-thiazole-4-carboxylic acid (2-oxo-5-phenyl-2,3-dihydro-1H-benzo[e][1,4]diazepin-3-yl)-amide]",–,–,< 5
"O=C(N[C@H]1N=C(c2ccccc2)c2ccccc2NC1=O)c1csc(-c2ccncc2)n1 [Example 39, (S)-2-Pyridin-4-yl-thiazole-4-carboxylic acid (2-oxo-5-phenyl-2,3-dihydro-1H-benzo[e][1,4]diazepin-3-yl)-amide]",–,–,< 5
"Cc1nc(-c2cnccn2)sc1C(=O)N[C@H]1N=C(c2ccccc2)c2ccccc2NC1=O [Example 40, (S)-4-Methyl-2-pyrazin-2-yl-thiazole-5-carboxylic acid (2-oxo-5-phenyl-2,3-dihydro-1H-benzo[e][1,4]diazepin-3-yl)-amide]",–,–,5 to 10
"O=C(N[C@H]1N=C(c2ccccc2)c2ccccc2NC1=O)c1ccoc1CN1CCOCC1 [Example 41, (S)-2-Morpholin-4-ylmethyl-furan-3-carboxylic acid (2-oxo-5-phenyl-2,3-dihydro-1H-benzo[e][1,4]diazepin-3-yl)-amide]",–,–,< 5
"O=C(N[C@H]1N=C(c2ccccc2)c2ccccc2NC1=O)c1cccc(CN2CCOCC2)c1 [Example 42, (S)-3-Morpholin-4-ylmethyl-N-(2-oxo-5-phenyl-2,3-dihydro-1H-benzo[e][1,4]diazepin-3-yl)-benzamide]",–,–,< 5
"O=C(N[C@H]1N=C(c2ccccc2)c2ccccc2NC1=O)c1cc(CN2CCOCC2)on1 [Example 43, (S)-5-Morpholin-4-ylmethyl-isoxazole-3-carboxylic acid (2-oxo-5-phenyl-2,3-dihydro-1H-benzo[e][1,4]diazepin-3-yl)-amide]",–,–,< 5
"O=C(N[C@H]1N=C(c2ccccc2)c2ccccc2NC1=O)c1occc1CN1CCOCC1 [Example 44, (S)-3-Morpholin-4-ylmethyl-furan-2-carboxylic acid (2-oxo-5-phenyl-2,3-dihydro-1H-benzo[e][1,4]diazepin-3-yl)-amide]",–,–,5 to 10
"O=C(N[C@H]1N=C(c2ccccc2)c2ccccc2NC1=O)c1ccc(-c2ccccn2)s1 [Example 45, (S)-5-Pyridin-2-yl-thiophene-2-carboxylic acid (2-oxo-5-phenyl-2,3-dihydro-1H-benzo[e][1,4]diazepin-3-yl)-amide]",–,–,< 5
"Cc1occ(S(=O)(=O)N2CCOCC2)c1C(=O)N[C@H]1N=C(c2ccccc2)c2ccccc2NC1=O [Example 46, (S)-2-Methyl-4-(morpholin-4-sulfonyl)-furan-3-carboxylic acid (2-oxo-5-phenyl-2,3-dihydro-1H-benzo[e][1,4]diazepin-3-yl)-amide]",–,–,5 to 10
"O=C(N[C@H]1N=C(c2ccccc2)c2ccccc2NC1=O)c1ccc(N2CCOCC2)nc1 [Example 47, (S)-6-Morpholin-4-yl-N-(2-oxo-5-phenyl-2,3-dihydro-1H-benzo[e][1,4]diazepin-3-yl)-nicotinamide]",–,–,< 5
"O=C(N[C@H]1N=C(c2ccccc2)c2ccccc2NC1=O)c1sccc1CN1CCOCC1 [Example 48, (S)-3-Morpholin-4-ylmethyl-thiophene-2-carboxylic acid (2-oxo-5-phenyl-2,3-dihydro-1H-benzo[e][1,4]diazepin-3-yl)-amide]",–,–,< 5
"O=C(N[C@H]1N=C(c2ccccc2)c2ccccc2NC1=O)c1ccc(CN2CCOCC2)s1 [Example 49, (S)-5-Morpholin-4-ylmethyl-thiophene-2-carboxylic acid (2-oxo-5-phenyl-2,3-dihydro-1H-benzo[e][1,4]diazepin-3-yl)-amide]",–,–,< 5
"O=C(N[C@H]1N=C(c2ccccc2)c2ccccc2NC1=O)c1ncoc1-c1ccccc1 [Example 51, (S)-5-Phenyl-oxazole-4-carboxylic acid (2-oxo-5-phenyl-2,3-dihydro-1H-benzo[e][1,4]diazepin-3-yl)-amide]",–,–,< 5
"(S)-2-(1,1-Dioxo-1λ6-thiomorpholin-4-yl)-N-(2-oxo-5-phenyl-2,3-dihydro-1H-benzo[e][1,4]diazepin-3-yl)-nicotinamide [Example 22]",> 10,–,–
"(S)-5-Pyrrolidin-1-ylmethyl-furan-2-carboxylic acid (2-oxo-5-phenyl-2,3-dihydro-1H-benzo[e][1,4]diazepin-3-yl)-amide [Example 9]",5 to 10,–,–
